Results as given in US7855290B2, “Pyridine derivatives and pyrimidine derivatives (3)” (Eisai R&D Management Co., Ltd., priority 2005, dated 2010).

Target: T1, HGFR (Homo sapiens, UniProt P08581)
T1 construct: endogenous in cells; host or cells: MKN-45 human gastric cancer cells
Experiment: Inhibitory activity against the HGFR autophosphorylation using ELISA (MKN-45 cells)
Assay type: cell-based
Conditions: 1 hr with test substance
Outline: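 HGFR autophosphorylation measured by sandwich ELISA: anti-phosphotyrosine PY20 capture, anti-HGFR detection, HRP secondary, TMB read at 450 nm. Lysates came from MKN-45 cells given test substance for 1 h at 37° C in 1% FBS RPMI1640. Percent activity normalised between no-compound extract and lysis buffer alone.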

T1 sequence (P08581 25-1390): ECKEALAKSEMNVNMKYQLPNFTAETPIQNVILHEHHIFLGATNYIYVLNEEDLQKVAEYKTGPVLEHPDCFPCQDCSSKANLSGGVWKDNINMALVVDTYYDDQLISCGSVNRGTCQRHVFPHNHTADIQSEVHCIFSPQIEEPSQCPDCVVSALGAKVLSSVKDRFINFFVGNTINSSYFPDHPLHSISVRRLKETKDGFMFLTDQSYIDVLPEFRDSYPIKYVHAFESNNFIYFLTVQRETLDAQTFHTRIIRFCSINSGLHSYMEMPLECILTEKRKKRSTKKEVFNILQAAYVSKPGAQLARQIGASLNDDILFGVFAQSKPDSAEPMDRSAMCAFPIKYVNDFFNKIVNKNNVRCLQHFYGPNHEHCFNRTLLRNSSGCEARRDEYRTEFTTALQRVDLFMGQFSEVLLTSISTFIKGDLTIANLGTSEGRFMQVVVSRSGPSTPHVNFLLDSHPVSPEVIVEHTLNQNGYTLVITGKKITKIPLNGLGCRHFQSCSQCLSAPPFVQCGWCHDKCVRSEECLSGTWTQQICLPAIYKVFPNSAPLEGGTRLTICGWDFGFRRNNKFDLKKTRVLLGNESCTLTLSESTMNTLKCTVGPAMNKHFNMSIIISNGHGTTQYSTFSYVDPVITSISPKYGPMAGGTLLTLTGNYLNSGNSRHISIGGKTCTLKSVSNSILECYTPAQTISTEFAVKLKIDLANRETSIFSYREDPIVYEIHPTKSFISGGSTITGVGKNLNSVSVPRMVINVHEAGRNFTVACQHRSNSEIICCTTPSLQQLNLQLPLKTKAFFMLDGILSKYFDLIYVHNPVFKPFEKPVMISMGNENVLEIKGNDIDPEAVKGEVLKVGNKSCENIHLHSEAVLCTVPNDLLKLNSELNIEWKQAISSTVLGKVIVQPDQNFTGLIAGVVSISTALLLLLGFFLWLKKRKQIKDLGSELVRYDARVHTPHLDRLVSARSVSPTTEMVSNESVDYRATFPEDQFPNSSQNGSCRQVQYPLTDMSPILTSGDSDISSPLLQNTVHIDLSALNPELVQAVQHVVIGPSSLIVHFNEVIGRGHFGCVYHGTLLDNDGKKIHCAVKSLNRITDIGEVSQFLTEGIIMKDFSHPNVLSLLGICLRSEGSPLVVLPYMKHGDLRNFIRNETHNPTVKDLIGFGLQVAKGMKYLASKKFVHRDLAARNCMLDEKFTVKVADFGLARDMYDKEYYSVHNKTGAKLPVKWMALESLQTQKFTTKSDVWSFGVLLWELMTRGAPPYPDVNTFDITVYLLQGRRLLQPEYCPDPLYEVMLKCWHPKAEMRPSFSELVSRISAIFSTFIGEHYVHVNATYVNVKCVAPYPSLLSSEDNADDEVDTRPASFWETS

| IC50 [nM] | Structure (SMILES) |
| --- | --- |
| 19 | CN(C)[C@H]1CCN(C(=O)Nc2cc(Oc3ccc(NC(=O)C4(C(=O)Nc5ccc(F)cc5)CC4)c(F)c3)ccn2)C1 [Example 46, N-(4-{[2-({[(3S)-3-(Dimethylamino)pyrrolidin-1-yl]carbonyl}amino)pyridin-4-yl]oxy}-2-fluorophenyl)-N′-(4-fluorophenyl)cyclopropane-1,1-dicarboxamide] |
| 30 | CN(C)[C@@H]1CCN(C(=O)Nc2cc(Oc3ccc(NC(=O)C4(C(=O)Nc5ccc(F)cc5)CC4)c(F)c3)ccn2)C1 [Example 47, N-(4-{[2-({[(3R)-3-(Dimethylamino)pyrrolidin-1-yl]carbonyl}amino)pyridin-4-yl]oxy}-2-fluorophenyl)-N′-(4-fluorophenyl)cyclopropane-1,1-dicarboxamide] |
| 12 | CN1CCC(N(C)C(=O)Nc2cc(Oc3ccc(NC(=O)C4(C(=O)Nc5ccccc5)CC4)c(F)c3)ccn2)CC1 [Example 48, N-(2-Fluoro-4-{[2-({[methyl(1-methylpiperidin-4-yl)amino]carbonyl}amino)pyridin-4-yl]oxy}phenyl)-N′-phenylcyclopropane-1,1-dicarboxamide] |
| 24 | CN1CCN(C2CCN(C(=O)Nc3cc(Oc4ccc(NC(=O)C5(C(=O)Nc6ccccc6)CC5)c(F)c4)ccn3)CC2)CC1 [Example 54, N-(2-Fluoro-4-{[2-({[4-(4-methylpiperazin-1-yl)piperidin-1-yl]carbonyl}amino)pyridin-4-yl]oxy}phenyl)-N′-phenylcyclopropane-1,1-dicarboxamide] |
| 16 | CN(C)C1CN(C2CCN(C(=O)Nc3cc(Oc4ccc(NC(=O)C5(C(=O)Nc6ccccc6)CC5)c(F)c4)ccn3)CC2)C1 [Example 55] |
| 41 | CN1CCC(N(C)C(=O)Nc2cc(Oc3ccc(NC(=O)C4(C(=O)Nc5ccc(F)cc5F)CC4)c(F)c3)ccn2)CC1 [Example 56, N-(2,4-Difluorophenyl)-N′-(2-fluoro-4-{[2-({[methyl(1-methylpiperidin-4-yl)amino]carbonyl}amino)pyridin-4-yl]oxy}phenyl)cyclopropane-1,1-dicarboxamide] |
| 82 | CN1CCC(N(C)C(=O)Nc2cc(Oc3ccc(NC(=O)C4(C(=O)Nc5ccccc5F)CC4)c(F)c3)ccn2)CC1 [Example 57, N-(2-Fluoro-4-{[2-({[methyl(1-methylpiperidin-4-yl)amino]carbonyl}amino)pyridin-4-yl]oxy}phenyl)-N′-(2-fluorophenyl)cyclopropane-1,1-dicarboxamide] |
| 17 | CN(C)[C@H]1CCN(C(=O)Nc2cc(Oc3ccc(NC(=O)C4(C(=O)Nc5ccccc5)CC4)c(F)c3)ccn2)C1 [Example 58, N-(4-{[2-({[(3S)-3-(Dimethylamino)pyrrolidin-1-yl]carbonyl}amino)pyridin-4-yl]oxy}-2-fluorophenyl)-N′-phenylcyclopropane-1,1-dicarboxamide] |
| 16 | CN(C)[C@@H]1CCN(C(=O)Nc2cc(Oc3ccc(NC(=O)C4(C(=O)Nc5ccccc5)CC4)c(F)c3)ccn2)C1 [Example 59, N-(4-{[2-({[(3R)-3-(Dimethylamino)pyrrolidin-1-yl]carbonyl}amino)pyridin-4-yl]oxy}-2-fluorophenyl)-N′-phenylcyclopropane-1,1-dicarboxamide] |
| 8 | CCN1CCC(N(C)C(=O)Nc2cc(Oc3ccc(NC(=O)C4(C(=O)Nc5ccccc5)CC4)c(F)c3)ccn2)CC1 [Example 60, N-(4-{[2-({[(1-Ethylpiperidin-4-yl)(methyl)amino]carbonyl}amino)pyridin-4-yl]oxy}-2-fluorophenyl)-N′-phenylcyclopropane-1′-dicarboxamide] |
| 8 | O=C(Nc1cc(Oc2ccc(NC(=O)C3(C(=O)Nc4ccc(F)cc4)CC3)c(F)c2)ccn1)N1CCC1 [Example 61, N-[4-({2-[(Azetidin-1-ylcarbonyl)amino]pyridin-4-yl]oxy}-2-fluorophenyl]-N′-(4-fluorophenyl)cyclopropane-1,1-dicarboxamide] |
| 11 | O=C(Nc1cc(Oc2ccc(NC(=O)C3(C(=O)Nc4ccc(F)cc4)CC3)c(F)c2)ccn1)N1CCCC1 [Example 62, N-(4-Fluorophenyl)-N′-[2-fluoro-4-({2-[(pyrrolidin-1-ylcarbonyl)amino]pyridin-4-yl}oxy)phenyl]cyclopropane-1,1-dicarboxamide] |
| 21 | O=C(Nc1cc(Oc2ccc(NC(=O)C3(C(=O)Nc4ccc(F)cc4)CC3)c(F)c2)ccn1)N1CCOCC1 [Example 63, N-[2-Fluoro-4-({2-[(morpholin-4-ylcarbonyl)amino]pyridin-4-yl}oxy)phenyl]-N′-(4-fluorophenyl)cyclopropane-1,1-dicarboxamide] |
| 20 | CN1CCN(C(=O)Nc2cc(Oc3ccc(NC(=O)C4(C(=O)Nc5ccc(F)cc5)CC4)c(F)c3)ccn2)CC1 [Example 64, N-{2-Fluoro-4-[(2-{[(1-methylpiperazin-4-yl)carbonyl]amino}pyridin-4-yl)oxy]phenyl}-N′-(4-fluorophenyl)cyclopropane-1,1-dicarboxamide] |
| 10 | O=C(Nc1cc(Oc2ccc(NC(=O)C3(C(=O)Nc4ccc(F)cc4)CC3)cc2F)ccn1)N1CCC1 [Example 65, N-[4-({2-[(Azetidin-1-ylcarbonyl)amino]pyridin-4-yl}oxy)-3-fluorophenyl]-N′-(4-fluorophenyl)cyclopropane-1,1-dicarboxamide] |
| 13 | O=C(Nc1cc(Oc2ccc(NC(=O)C3(C(=O)Nc4ccc(F)cc4)CC3)cc2F)ccn1)N1CCCC1 [Example 66, N-(4-Fluorophenyl)-N′-[3-fluoro-4-({2-[(pyrrolidin-1-ylcarbonyl)amino]pyridin-4-yl}oxy)phenyl]cyclopropane-1,1′-dicarboxamide] |
| 10 | O=C(Nc1cc(Oc2ccc(NC(=O)C3(C(=O)Nc4ccc(F)cc4)CC3)cc2F)ccn1)N1CCOCC1 [Example 67, N-[3-Fluoro-4-({2-[(morpholin-4-ylcarbonyl)amino]pyridin-4-yl}oxy)phenyl]-N′-(4-fluorophenyl)-cyclopropane-1,1-dicarboxamide] |
| 71 | O=C(Nc1cc(Oc2ccc(NC(=O)C3(C(=O)Nc4ccc(F)cc4)CC3)cc2)ccn1)N1CCOCC1 [Example 68, N-(4-Fluorophenyl)-N′-[4-({2-[(morpholin-4-ylcarbonyl)amino]pyridin-4-yl}oxy)phenyl]cyclopropane-1,1-dicarboxamide] |
| 37 | O=C(Nc1cc(Oc2ccc(NC(=O)C3(C(=O)Nc4ccc(F)cc4)CC3)cc2)ccn1)N1CCCC1 [Example 69, N-(4-Fluorophenyl)-N′-[4-({2-[(pyrrolidin-1-ylcarbonyl)amino]pyridin-4-yl}oxy)phenyl]cyclopropane-1,1-dicarboxamide] |
| 27 | O=C(Nc1cc(Oc2ccc(NC(=O)C3(C(=O)Nc4ccc(F)cc4)CC3)cc2)ccn1)N1CCC1 [Example 70, N-[4-({2-[(Azetidin-1-ylcarbonyl)amino]pyridin-4-yl}oxy)phenyl]-N′-(4-fluorophenyl)cyclopropane-1,1-dicarboxamide] |
| 11 | O=C(Nc1cc(Oc2ccc(NC(=O)C3(C(=O)Nc4ccc(F)cc4)CC3)c(F)c2)ccn1)N1CCC(N2CCNCC2)CC1 [Example 71, N-(4-Fluorophenyl)-N′-{2-fluoro-4-[(2-{[(4-piperazin-1-ylpiperidin-1-yl)carbonyl]amino}pyridin-4-yl)oxy]phenyl}cyclopropane-1,1-dicarboxamide] |
